Results from patent US5965088A, “Method for providing rapid disinfection of contact lenses” (priority 1997, dated 1999).
Like-named read-outs stand apart in the source and are kept apart here.

System: Serratia marcescens (ATCC 13880)
Test: Antimicrobial efficacy (stand-alone log reduction), S. marcescens
Assay type: cell-based
Details: for log reduction at 4 ppm / log reduction at 1 ppm / log reduction at 2 ppm / log reduction at 3 ppm / log reduction at 5 ppm / log reduction at 4 µg/mL: Serratia marcescens; for log reduction at 4 µg/mL: 4.0 ppm alexidine in ReNu MPS; for Log Reduction S. marcescens: PAPB 0.0
Description: This Example illustrates the microbiocidal efficacy of solutions according to the present invention. The antimicrobial efficacy of each of various compositions for the chemical disinfection of contact lenses was evaluated. Microbial challenge inoculums were prepared using Pseudomonas aeruginosa (ATCC 9027), Staphylococcus aureus (ATCC 6538), Serratia marcescens (ATCC 13880), Candida albicans (ATCC 10231), and Fusarium solani (ATCC 36031). The test organisms were cultured on appropriate agar and the cultures were harvested using sterile DPBST (Dulbecco's Phosphate Buffered Saline plus 0.05% w/v polysorbate 80) or a suitable diluent and transferred to a suitable vessel. Spore suspensions were filtered through sterile glass wool to remove hyphal fragments. Serratia marcescens, as appropriate, was filtered (eg., through a 1.2 μ filter) to clarify the suspension. After harvesting, the suspension was centrifuged at no more than 5000× g for a maximum of 30 minutes at 20-25° C. The supernatant was poured off and resuspended in DPBST or other suitable diluent. The suspension was centrifuged a second time, and resuspended in DPBST or other suitable diluent. All challenge bacterial and fungal cell suspensions were adjusted with DPBST or other suitable diluent to 1×10^7 -10^8 cfu/mL. The appropriate cell concentration may be estimated by measuring the turbidity of the suspension, for example using a spectrophotometer at a preselected wavelength, for example 490 nm. One tube was prepared containing a minimum of 10 mL of test solution per challenge organism. Each tube of the solution to be tested was inoculated with a suspension of the test organism sufficient to provide a final count of 1.0×10^5 -10^6 cfu/mL, the volume of the inoculum not exceeding 1% of the sample volume. Dispersion of the inoculum was ensured by vortexing the sample for at least 15 seconds. The inoculated product was stored at 10-25° C. Aliquots in the amount of 1.0 mL were taken of the inoculated product for determination of viable counts after certain time periods of disinfection. The time points for the bacteria were 25, 50, 75, and 100% of the minimum disinfection time. Yeast and mold were tested at an additional timepoint of at least 400% of the minimum disinfection time. The suspension was mixed well by vortexing vigorously for at least 5 second. The 1.0 mL aliquots removed at the specified time intervals were subjected to a suitable series of decimal dilutions in validated neutralizing media. The suspensions were mixed vigorously and incubated for a suitable period of time to allow for neutralization of the microbial agent. The viable count of organisms was determined in appropriate dilutions by preparation of triplicate plates of trypticase soy (TSA) agar for bacteria and Sabouraud dextrose agar (SDA) for mold and yeast. The bacterial recovery plates were incubated at 30-35° C. for 2-4 days. The yeast was incubated at 20-30° C. for 2-4 days and mold recovery plates at 20-25° C. for 3-7 days. The average number of colony forming units was determined on countable plates. Countable plates refer to 30-300 cfu/plates for bacteria and yeast, and 8 to 80 cfu/plate for mold except when colonies are observed only for the 10^0 or 10^-1 dilution plates. The microbial reduction was then calculated at the specified time points. […] Following inoculation in a validated neutralizing broth and incubation for an appropriate period of time, the inoculum control must be between 1.0×10^5 -1.0×10^6 cfu/mL
The solutions were evaluated based on the performance requirement referred to as the "Stand-Alone Procedure for Disinfecting Products" (hereafter the "stand-alone test") and is based on the Disinfection Efficacy Testing for contact lens care products under the Draft Premarket Notification (510(k)) Guidance Document For Contact Lens Care Products dated Apr. 1, 1996, prepared by the U.S. Food and Drug Administration, Division of Ophthalmic Devices. […]

In the case of CCCCC(CC)CNC(=N)NC(=N)NCCCCCCNC(=N)NC(=N)NCC(CC)CCCC.Cl.Cl (stereo not shown) [Alexidine.2HCl, 1,1 '-hexamethylenebis(5-(2-ethylhexyl)-biguanide) dihydrochloride], the log reduction at 4 ppm (ATCC13880, 2.5 min, 4.0 ppm, aged 18 months, Exp. 1, 2.5 min, read-out: Log Reduction) is reported as 0.5, the log reduction at 4 ppm (ATCC13880, 2.5 min, 4.0 ppm, aged 18 months, Exp. 2, 2.5 min, read-out: Log Reduction) is reported as 0.8 and the log reduction at 4 ppm (ATCC13880, 2.5 min, 4.0 ppm, aged 18 months, Exp. 3, 2.5 min, read-out: Log Reduction) is reported as 0.8. The log reduction at 4 ppm (ATCC13880, 5 min) was 0.6, the log reduction at 1 ppm (ATCC13880, 5 min, 1.0 ppm, read-out: Log Reduction at 5 Minutes) was 0.5 and the log reduction at 2 ppm (ATCC13880, 5 min, 2.0 ppm, read-out: Log Reduction at 5 Minutes) was 0.8. For the same molecule, the log reduction at 3 ppm (ATCC13880, 5 min, 3.0 ppm, read-out: Log Reduction at 5 Minutes) was 1.1, the log reduction at 4 ppm (ATCC13880, 5 min, 4.0 ppm, aged 18 months, Exp. 2, 5.0 min, read-out: Log Reduction) was 2 and the log reduction at 4 ppm (ATCC13880, 5 min, 4.0 ppm, aged 18 months, Exp. 3, 5.0 min, read-out: Log Reduction) was 2. It also gave a log reduction at 4 ppm (ATCC13880, 5 min, 4.0 ppm, read-out: Log Reduction at 5 Minutes) of 2, a log reduction at 5 ppm (ATCC13880, 5 min, 5.0 ppm, read-out: Log Reduction at 5 Minutes) of 2.9 and a log reduction at 4 ppm (ATCC13880, 0.125 h, 4.0 ppm, aged 18 months, Exp. 1, 7.5 min, read-out: Log Reduction) of 0.9. It also gave a log reduction at 4 ppm (ATCC13880, 0.125 h, 4.0 ppm, aged 18 months, Exp. 2, 7.5 min, read-out: Log Reduction) of 2.8, a log reduction at 4 ppm (ATCC13880, 0.125 h, 4.0 ppm, aged 18 months, Exp. 3, 7.5 min, read-out: Log Reduction) of 2.2 and a log reduction at 4 ppm (ATCC13880, 10 min) of 1.2. For the same molecule, the log reduction at 1 ppm (ATCC13880, 10 min, 1.0 ppm, read-out: Log Reduction at 10 Minutes) was 0.7, the log reduction at 2 ppm (ATCC13880, 10 min, 2.0 ppm, read-out: Log Reduction at 10 Minutes) was 1.8 and the log reduction at 3 ppm (ATCC13880, 10 min, 3.0 ppm, read-out: Log Reduction at 10 Minutes) was 2.6. The log reduction at 4 ppm (ATCC13880, 10 min, 4.0 ppm, aged 18 months, Exp. 2, 10.0 min, read-out: Log Reduction) was 2.8, the log reduction at 4 ppm (ATCC13880, 10 min, 4.0 ppm, aged 18 months, Exp. 3, 10.0 min, read-out: Log Reduction) was 2.2 and the log reduction at 4 ppm (ATCC13880, 10 min, 4.0 ppm, read-out: Log Reduction at 10 Minutes) was greater than 4.8. It also gave a log reduction at 5 ppm (ATCC13880, 10 min, 5.0 ppm, read-out: Log Reduction at 10 Minutes) greater than 4.8, a log reduction at 4 ppm (ATCC13880, 0.25 h) of 3 and a log reduction at 4 ppm (ATCC13880, 0.25 h, 4.0 ppm, Ex. 6, aged 19 months at 25 °C, 15 min, read-out: Log Reduction) of 3.2. For the same molecule, the log reduction at 4 ppm (ATCC13880, 0.25 h, 4.0 ppm, Ex. 8, different batch aged 19 months at 25 °C, 15 min, read-out: Log Reduction) was 2.5, the log reduction at 4 ppm (ATCC13880, 0.5 h, 4.0 ppm, Ex. 6, aged 19 months at 25 °C, 30 min, read-out: Log Reduction) was greater than 4.7 and the log reduction at 4 ppm (ATCC13880, 0.5 h, 4.0 ppm, Ex. 7, different lot aged 18 months, 30 min, read-out: Log Reduction) was 4.7. It also gave a log reduction at 4 ppm (ATCC13880, 0.5 h, 4.0 ppm, Ex. 8, different batch aged 19 months at 25 °C, 30 min, read-out: Log Reduction) of 4.6, a log reduction at 4 ppm (ATCC13880, 0.75 h, 4.0 ppm, Ex. 6, aged 19 months at 25 °C, 45 min, read-out: Log Reduction) greater than 4.7 and a log reduction at 4 ppm (ATCC13880, 0.75 h, 4.0 ppm, Ex. 7, different lot aged 18 months, 45 min, read-out: Log Reduction) greater than 4.8. The log reduction at 4 ppm (ATCC13880, 0.75 h, 4.0 ppm, Ex. 8, different batch aged 19 months at 25 °C, 45 min, read-out: Log Reduction) was greater than 4.7, the log reduction at 1 ppm (ATCC13880, 1 h, 1 ppm, 1 hr, read-out: Log Reduction) was 3.5 and the log reduction at 2 ppm (ATCC13880, 1 h, 2 ppm, 1 hr, read-out: Log Reduction) was greater than 4.8. It also gave a log reduction at 3 ppm (ATCC13880, 1 h, 3 ppm, 1 hr, read-out: Log Reduction) greater than 4.8, a log reduction at 4 µg/mL (ATCC13880, 1 h, 1 hr) of 3.7 and a log reduction at 4 ppm (ATCC13880, 1 h, 4 ppm, 1 hr, read-out: Log Reduction) greater than 4.8. The log reduction at 4 ppm (ATCC13880, 1 h, 4.0 ppm, Ex. 6, aged 19 months at 25 °C, 60 min, read-out: Log Reduction) was greater than 4.7, the log reduction at 4 ppm (ATCC13880, 1 h, 4.0 ppm, Ex. 7, different lot aged 18 months, 60 min, read-out: Log Reduction) was greater than 4.8 and the log reduction at 4 ppm (ATCC13880, 1 h, 4.0 ppm, Ex. 8, different batch aged 19 months at 25 °C, 60 min, read-out: Log Reduction) was greater than 4.7. It also gave a log reduction at 5 ppm (ATCC13880, 1 h, 5 ppm, 1 hr, read-out: Log Reduction) greater than 4.8, a log reduction at 4 µg/mL (ATCC13880, 2 h, 2 hr) greater than 4.7 and a log reduction at 4 µg/mL (ATCC13880, 3 h, 3 hr) greater than 4.7. For the same molecule, the log reduction at 4 µg/mL (ATCC13880, 4 h, 4 hr) was greater than 4.7, the “Log Reduction S. marcescens” value (alexidine 0.5 ppm, 15 min) was 0.6 log and the “Log Reduction S. marcescens” value (alexidine 0.5 ppm, 30 min) was 1.6 log. The “Log Reduction S. marcescens” value (alexidine 0.5 ppm, 60 min) was 2.5 log, the “Log Reduction S. marcescens” value (alexidine 2.6 ppm, 15 min) was 2.2 log and the “Log Reduction S. marcescens” value (alexidine 2.6 ppm, 30 min) was greater than 4.3 log. For the same molecule, the “Log Reduction S. marcescens” value (alexidine 2.6 ppm, 60 min) was greater than 4.3 log.
